Consider one compound from patent US4199499A, “Pharmacologically active peptides” (Eli Lilly and Company, priority 1978, dated 1980).

The assay concerns mouse. The assay can be described thus: mouse hot plate test. The format is in vivo. Conditions: 15 minutes after administration, hot plate 52° C. As for the experimental part:
The compounds of this invention are useful as analgesics. […] In this test, a mouse is placed inside an upright acrylic cylinder comprising, as its base, a hot plate surface which is maintained at 52° C. The mouse is given, by subcutaneous injection, a predetermined amount of test compound dissolved or suspended in a suitable carrier, and, 15 minutes after administration of the test compound, the mouse is placed on the hot plate surface. The latencies in seconds until the occurrence of each of two separate phenomena then are recorded. First the latency until the mouse licks its hind paw is measured, and, secondly, the latency until the mouse jumps from the hot plate surface is measured. […] This must occur in a dose range which produces no motor incoordination or incapacitation. The following Table records the results obtained from this test, reflected in terms of increase over saline control. Each data point was determined using ten treated and ten control mice, and each represents the difference in mean response latency between treated and control animals. The mean control latency for the hind paw lick response was 28.4±0.9 seconds determined from eight groups of ten control mice each. The mean control jump latency was 52.4±3.7 seconds for studies run in the a.m. and 75.9±6.0 seconds for studies run in the p.m. as determined from four groups of ten mice each in the a.m. and four groups of ten mice each in the p.m.
A general note: Hot-plate and tail-flick tests time the reaction to a heat stimulus.

Consider `CSCCC(C)(CO)NC(=O)[C@H](Cc1ccccc1)NC(=O)CNC(=O)[C@@H](C)NC(=O)[C@@H](N)Cc1ccc(O)cc1` (stereo partly drawn) [C, L-Tyrosyl-D-alanyl-glycyl-L-phenylalanyl-D,L-α-methylmethionine carbinol], for which the “Latency, Increase in Seconds over Control, escape jump (EJ)” value by setting is: (dose 0.1 mg/kg subcutaneous) 16.4 s; (dose 0.3 mg/kg subcutaneous) 47.7 s; (dose 1 mg/kg subcutaneous) 55.2 s; (dose 3 mg/kg subcutaneous) 74.9 s; (dose 10 mg/kg subcutaneous) 90.7 s; (dose 30 mg/kg subcutaneous) 93.8 s. Also, the “Latency, Increase in Seconds over Control, hind paw lick (HPL)” value is -2.6 s (dose 0.1 mg/kg subcutaneous); 1.7 s (dose 0.3 mg/kg subcutaneous); 8.3 s (dose 1 mg/kg subcutaneous); 11.2 s (dose 3 mg/kg subcutaneous); 18.8 s (dose 10 mg/kg subcutaneous); 10.6 s (dose 30 mg/kg subcutaneous).
